The text below walks through data of patent US9254268B2, “Compositions comprising lipophilic active compounds and method for their preparation” (SOLUBEST LTD., priority 2007, dated 2016).

Data set [1] can be described thus: Dissolution of resveratrol in Model Fasted Duodenal Solution (MFDS). Type of data set: physicochemical. The procedure:
The Model Fasted Duodenal Solution (MFDS) was prepared as follows: a mixture of sodium chloride (3.093 g), sodium hydrophosphate (1.719 g) and sodium taurocholate (0.8065 g) was dissolved in deionized water (300 g) using ultrasonic bath. Lecithin (0.2925 g) was dissolved in 2 ml methylene chloride and added to the buffered solution of sodium taurocholate. The resulting emulsion was stirred for 5 min and then methylene chloride was evaporated under vacuum. The obtained clear micellar solution was adjusted to the volume of 500 ml by deionized water.
For the test procedure, the test resveratrol formulations or raw resveratrol powder (10 mg) were placed into 2 ml microcentrifuge tube and MFDS (1.8 ml) was added to the each tube. The tubes were gently shaken (about 50 rpm) at 37° C. and samplings were taken at 10, 20, 40, 60 and 120 min. For this purpose, the tubes were vortexed at the highest speed for 60 seconds and then centrifuged at 13 000 G for 60 seconds. The solid-free supernatant (0.4 ml) was mixed with 0.4 ml diluent (30% water adjusted to pH 2.5 with phosphoric acid and 70% acetonitrile) and this solution was inserted into an HPLC instrument for determination of resveratrol concentration.

A short description of data set [2]: Thermal properties by Differential Scanning Calorimetry (DSC). The settings on record: for melting enthalpy (melting energy) / melting temperature (endothermic peak): DSC, after preparation. (Differential scanning calorimetry records heat flow against a reference as temperature is scanned.)
The nature of data set [3]: Albendazole dissolution in 0.05 M sodium lauryl sulfate. The settings on record: after 15 min. Format: physicochemical. The procedure:
(iv) The dissolution test was performed in accordance with USP Dissolution Method <711> and FDA Dissolution Methods for Drug Products using the paddle apparatus Distek model 2100A. The quantification was performed using UV spectrophotometer. Appropriate amount of spray dried powders or tablets as well as control powders or tablets were dissolved in 1000 ml of 0.05 M water solution of sodium lauryl sulfate, at 37° C., […]

Data set [4] is described as follows: Particle size of aqueous dispersions by Dynamic Light Scattering. Format: physicochemical. The settings on record: powder suspended in water. As for the experimental part: (vii) Particle size of the nanodispersions: measurements were performed using Dynamic Light Scattering (DLS). The method was run on the Malvern Zen 3600, Zetasizer-nano series. The samples were prepared by suspending spray-dried powder in water (0.075-0.1%) at 25-30° C. First, water was added to the appropriate amount of the powder and the mixture was left for 15 min. Then, the suspension was magnetically stirred during 4 min at 300 rpm and 1 ml of the suspension was transferred to a cuvette for measurement. The cuvette was incubated inside the instrument during 5 min for stabilization prior measurement. A series of at least 5 repeating measurements was carried out at 25-30° C. Following parameters are reported from the analysis of volume weighed size distribution: polydispersity index (PDI), the diameter of the main fraction (Z-vol), volume % of main fraction.
The powders produced as described in Examples 1-9 have been suspended in deionized water as described in method (vii) of the section Materials and Methods.
In the Dynamic Light Scattering method, we used two main parameters to characterize the colloidal system: the hydrodynamic diameter of the particles and the width of distribution (polydispersity). […]

Consider `Oc1ccc(C=Cc2cc(O)cc(O)c2)cc1` [Resveratrol raw powder, Resveratrol], for which the Concentration of resveratrol in data set [1] (10 min, MFDS, 37° C.) is 76.65 µg/mL; in data set [1] (20 min), 103.15 µg/mL; in data set [1] (40 min), 119.3 µg/mL; in data set [1] (60 min), 121.05 µg/mL; in data set [1] (120 min), 155.6 µg/mL.
Take `CC(C)OC(=O)C(C)(C)Oc1ccc(C(=O)c2ccc(Cl)cc2)cc1` [Fenofibrate starting material, Fenofibrate]: in data set [2], the “melting enthalpy (melting energy)” value is given as 74.3 J/g and the “melting temperature (endothermic peak)” value is “around 82 °C”.
The compound `CCCSc1ccc2nc(NC(=O)OC)[nH]c2c1` [Raw albendazole crystalline powder, Albendazole] showed an albendazole dissolved in data set [3] of 16.6%. In addition, in data set [2], the “melting enthalpy (melting energy)” value is listed as 209.7 J/g and the “melting temperature (endothermic peak)” value was “around 215 °C”.
With `CC(C)c1c(C(=O)Nc2ccccc2)c(-c2ccccc2)c(-c2ccc(F)cc2)n1CC[C@@H](O)C[C@@H](O)CC(=O)O` [Example 18, Atorvastatin], the “kind of dispersion formed in water (observation)” value in data set [4] is “coarse suspensions with large visible particles”. The “broad DSC peak, range” value in data set [2] (after storage of six months, attributed to beginning of crystallization) is 116-183 °C.
